# Assay results taken from patent US6555375B1, “Methods for somatic embryo formation and plant regeneration of Beta vulgaris” (priority 2000, dated 2003).
# Experiments:
# [1] = tested on: sugar beet seedling tissues (hypocotyls, cotyledons); test: Callus induction from sugar beet seedling explants on MS medium with cytokinin; format: cell-based, Beta vulgaris
# Description: Seeds from three sugar beet lines ACH199 (triploid), ACH31 (triploid) and ACH203 (diploid) were obtained from Crystal and Maribo Beet Seed, Moorehead, Minn. USA. To remove seed covers, Beta vulgaris seeds were soaked in the tap water overnight and then washed under water flow. Seeds were sterilized by sequential treatment with 70% (v/v) ethanol (1 min.), 0.1% (w/v) mercuric chloride (10 min.) and 10% (v/v) household laundry bleach (20 min.) followed by four washes with sterile distilled water. Seeds were then dried on sterile filter paper. All steps were performed in a laminar flow hood.
# A series of media which included additional supplements were used for callus induction, embryo proliferation and shoot formation. Phytohormones (BAP, TDZ, NAA, IAA, 2,4-D) were added to the media before autoclaving (120° C. for 20 min.). The basal medium for callus induction and embryogenesis is MS medium comprising MS basal salts, 3% sucrose, 100 mg/L myo-inositol, 0.5 mg/L nicotinic acid, 0.5 mg/L pyridoxine-HCl, 1 mg/L thiamine-HCl and 0.8% (w/v) Difco agar. The basal medium for proliferation of repetitive embryos is MSE (MS basal salts, 100 mg/L myo-inositol, 0.5 mg/L nicotinic acid, 0.5 mg/L pyridoxine-HCl, 1 mg/L thiamine-HCl).
# Petri dishes (100 mm×25 mm) containing 25 mL of medium were used for all experiments. Seeds were placed on MS medium, containing either BAP 2 mg/L or TDZ 1 mg/L; plates were sealed and placed in the dark place at 21° C. Cotyledons and hypocotyls (FIG. 1A) were excised from two-week-old seedlings, cut into several pieces, incised and placed on callus induction medium (MS medium supplemented with either 2 mg/L of BAP or 1 mg/l of TDZ). Plates were incubated in the dark at 21° C. Four weeks later, when explants were necrotic and dark brown, colonies of white friable callus appeared on the explant surface (FIG. 1B). Most of the callus formed on hypocotyls. Only a few colonies were found on cotyledons.
# [2] = tested on: secondary somatic embryos of sugar beet; test: Regeneration of secondary somatic embryos, adventitious shoot formation; format: cell-based, Beta vulgaris
# Source text: Somatic embryos produced as described in Example 3 started to germinate as soon as they were transferred to a medium comprising MS basal salts, 3% sucrose and either BAP or TDZ under light. Regeneration began with green or red coloration of an embryo accompanied by formation of primary leaves and roots (FIG. 2C). Since the regeneration medium contained cytokinins, the primary roots were reduced while the shoots developed (FIG. 2D).
# To select the best medium for embryo germination, a series of concentrations of BAP and TDZ was tested. The phenotypic effect of applied phytohormones was estimated after three weeks (FIG. 3).
# [3] = tested on: callus; details: Nielson et al. (1995), Roussy et al. (1996); cited from earlier work
# [4] = tested on: embryogenic tissue masses of sugar beet; test: Repetitive embryogenic culture: optimization of proliferation medium; format: cell-based, Beta vulgaris; details: for Effect of media on repetitive embryogenic culture (description) / white embryos or white clumps, share of tissues: IV. MSE, sucrose 6%, glycine 2 mg/L, pH 5.7
# Description: These embedded tissues were manually isolated, separated and transferred into liquid medium (MS medium+BAP 0.2 mg/L). The cultures were maintained at constant agitation (100 rpm) in the dark with biweekly changes of the medium. […] Clumps of white embryogenic tissue masses were divided and transferred to fresh medium for further proliferation. […] Part of these tissues was used for the optimization of culture medium.
# The optimization of proliferation medium was conducted through several stages. Each stage lasted for two weeks.
# [5] = tested on: sugar beet somatic embryos; test: Germination of primary somatic embryos on MS medium containing cytokinin; format: cell-based, Beta vulgaris
# Description: The embryos germinated quickly when transferred to fresh medium either supplemented with phytohormones or not. […] These embedded tissues were manually isolated, separated and transferred into liquid medium (MS medium+BAP 0.2 mg/L). The cultures were maintained at constant agitation (100 rpm) in the dark with biweekly changes of the medium. The white embryogenic tissue masses expanded in two weeks and snow-white fresh outgrowths formed on the surface of older tissues (FIG. 2B). Clumps of white embryogenic tissue masses were divided and transferred to fresh medium for further proliferation. A couple of such passages was enough to generate a large number of white clumps. Part of these tissues was used for the optimization of culture medium.
# [6] = tested on: friable callus of sugar beet; test: Shoot/plant regeneration from friable callus; format: cell-based, Beta vulgaris
# Description: For regeneration of embryos, friable callus was transferred to callus regeneration medium (MS medium supplemented with either 1 mg/L of BAP or 1 mg/L of TDZ). The cultures were incubated at 25° C. under a photoperiod of 16 hours of light of cool, white light at an intensity of 30 μmol m^−2s^−1 followed by a 8 hours of darkness. Callus began to grow vigorously, and by the end of the second week, it was possible to distinguish several callus types as well as small embryos (FIG. 1C). Since every seedling was treated as a separate line, quantitative analysis can be applied to the results of the experiments.
# All explants of one type from the same line (i.e. only hypocotyls) were able to produce callus, if any did. At the same time, there were only a few cases where callus formed from both cotyledons and hypocotyls of the same seedling (twice in ACH31 and four times in ACH203).
compound,measurement,setting,value
"O=C(Nc1ccccc1)Nc1cnns1 [TDZ, thidiazuron]","production of friable callus and shoots, and plants therefrom: callus induction medium comprising TDZ versus BAP",[1],superior
same,"increase of friable callus formation from hypocotyls, TDZ compared with BAP",[1]; ACH31,two-fold
same,%A: number of lines producing callus/total number of lines × 100,"[1]; Cultivar ACH31, Cotyledons",0%
same,# of lines produced callus,"[1]; Cultivar ACH31, Cotyledons, MS + BAP 2 mg/L or TDZ 1 mg/L",0
same,%A: number of lines producing callus/total number of lines × 100,"[1]; Cultivar ACH31, Hypocotyls, MS + BAP 2 mg/L or TDZ 1 mg/L",45%
same,# of lines produced callus,"[1]; Cultivar ACH31, Hypocotyls, MS + BAP 2 mg/L or TDZ 1 mg/L, dark 21° C.",50
same,%A: number of lines producing callus/total number of lines × 100,"[1]; Cultivar ACH203, Cotyledons",0%
same,# of lines produced callus,"[1]; Cultivar ACH203, Cotyledons, MS + BAP 2 mg/L or TDZ 1 mg/L",0
same,%A: number of lines producing callus/total number of lines × 100,"[1]; Cultivar ACH203, Hypocotyls",43%
same,# of lines produced callus,"[1]; Cultivar ACH203, Hypocotyls, MS + BAP 2 mg/L or TDZ 1 mg/L",100
same,"callus initiation from cotyledons, TDZ compared with BAP",[1]; cotyledons,no TDZ-related improvements
same,"callus formation and plant regeneration, TDZ compared with BAP",[1]; hypocotyls of cultivar ACH203,provided similar results
same,"rate of callus formation from hypocotyls and plant regeneration from such callus, TDZ compared with BAP",[1]; two out of three cultivars tested,dramatically increased
same,adventitious shoot formation,"[2]; TDZ at 0.03 mg/L, concentrations tested 0.03, 0.1, 0.3, 1 and 3 mg/l, after three weeks",most effective
same,inducing the formation of adventitious shoots on Beta vulgaris embryos,[2]; compared with BAP,superior to BAP
same,"regeneration, particularly shoot development on Beta vulgaris embryos",[2]; compared with BAP,superior to BAP
same,vitrification of tissues,[2]; concentrations higher than 0.03 mg/L,caused vitrification of tissues
same,vitrification of tissues and adventitious shoots,[2]; low concentrations,did not cause vitrification of tissues while producing more adventitious shoots
same,callus-inducing effectiveness,[3],more effective callus-inducing agent than BAP
same,necrosis,[4],did not cause necrosis
same,tissue proliferation and anthocyanin production,[4],very quick proliferation of tissue and intensified production of anthocyanins
same,Effect of media on repetitive embryogenic culture (description),[4]; phytohormone 0.05 mg/L,Vigorously expanded dark red culture
same,"white embryos or white clumps, share of tissues",[4]; phytohormone 0.05 mg/L,20%
same,Effect of media on repetitive embryogenic culture (description),[4]; phytohormone 0.1 mg/L,Vigorously expanded dark red culture
same,"white embryos or white clumps, share of tissues",[4]; phytohormone 0.1 mg/L,20%
same,Effect of media on repetitive embryogenic culture (description),[4]; phytohormone 1 mg/L,"Vigorously expanded dark red culture, no white embryos"
same,effect on embryogenic tissues during medium optimization,"[4]; indicated by vigorous growth, red coloration, absence of embryogenic tissue masses",induced the regeneration of embryos
same,phenotype of embryos transferred to MS medium containing BAP or TDZ,[5],formed multiple shoots but also retained white embryogenic tissues
same,"increase of plant regeneration from these calli, TDZ compared with BAP","[6]; ACH31, hypocotyl callus",nine-fold
same,# of lines produced shoots,"[6]; Cultivar ACH31, Cotyledons",0
same,%B: number of lines producing callus and regenerating/total number of lines × 100,"[6]; Cultivar ACH31, Cotyledons",0%
same,%B: number of lines producing callus and regenerating/total number of lines × 100,"[6]; Cultivar ACH31, Hypocotyls",9%
same,# of lines produced shoots,"[6]; Cultivar ACH31, Hypocotyls, regeneration medium MS + 1 mg/L BAP or TDZ",10
same,# of lines produced shoots,"[6]; Cultivar ACH203, Cotyledons",0
same,%B: number of lines producing callus and regenerating/total number of lines × 100,"[6]; Cultivar ACH203, Cotyledons",0%
same,# of lines produced shoots,"[6]; Cultivar ACH203, Hypocotyls",40
same,%B: number of lines producing callus and regenerating/total number of lines × 100,"[6]; Cultivar ACH203, Hypocotyls",17%
